{
  "source": "paper PMC5218480",
  "about": "(PLoS ONE, 2017)",
  "system": "MV-4-11 cells",
  "experiment": "Gene expression microarray analysis (Affymetrix PrimeView) and GSEA",
  "type": "cell-based, human",
  "parameters": "RFU PODN (11730768_x_at) / Fold change /veh PODN (11730768_x_at) / RFU LINC00158 (11744669_a_at) / Fold change /veh LINC00158 (11744669_a_at) / RFU DUSP10 (11751237_a_at) / Fold change /veh DUSP10 (11751237_a_at) / RFU ID3 (11757404_x_at) / Fold change /veh ID3 (11757404_x_at) / RFU PLEKHG5 (11737974_s_at) / Fold change /veh PLEKHG5 (11737974_s_at) / RFU LRRC4B (11730491_at) / Fold change /veh LRRC4B (11730491_at) / RFU GIMAP4 (11747438_a_at) / Fold change /veh GIMAP4 (11747438_a_at) / RFU KRT8 (11758183_x_at) / Fold change /veh KRT8 (11758183_x_at) / RFU CNN1 (11734310_a_at) / Fold change /veh CNN1 (11734310_a_at) / RFU VPS37D (11726825_at) / Fold change /veh VPS37D (11726825_at) / RFU C10orf10 (11716522_x_at) / Fold change /veh C10orf10 (11716522_x_at) / RFU KIR2DL2 /// KIR2DL4 /// KIR2DL5A /// KIR2DL5B /// KIR2DS1 /// KIR2DS2 /// KIR2DS3 /// KIR2DS4 /// KIR3DL3 /// KIR3DL3 /// KIR3DS1 (11738374_at) / Fold change /veh KIR2DL2 /// KIR2DL4 /// KIR2DL5A /// KIR2DL5B /// KIR2DS1 /// KIR2DS2 /// KIR2DS3 /// KIR2DS4 /// KIR3DL3 /// KIR3DL3 /// KIR3DS1 (11738374_at) / RFU C1QL1 (11718748_at) / Fold change /veh C1QL1 (11718748_at) / RFU TMPRSS4 (11747572_a_at) / Fold change /veh TMPRSS4 (11747572_a_at) / RFU HAMP (11756126_x_at) / Fold change /veh HAMP (11756126_x_at) / RFU RNFT2 (11725882_a_at) / Fold change /veh RNFT2 (11725882_a_at) / RFU NR4A2 (11747474_a_at) / Fold change /veh NR4A2 (11747474_a_at) / RFU ABCC12 (11746883_a_at) / Fold change /veh ABCC12 (11746883_a_at) / RFU TMEM136 (11760407_x_at) / Fold change /veh TMEM136 (11760407_x_at) / RFU CLDN22 /// WWC2 (11732394_at) / Fold change /veh CLDN22 /// WWC2 (11732394_at) / RFU HLA-DPB1 (11760878_x_at) / Fold change /veh HLA-DPB1 (11760878_x_at) / RFU SPINT1 (11716480_a_at) / Fold change /veh SPINT1 (11716480_a_at) / RFU GAP43 (11754022_s_at) / Fold change /veh GAP43 (11754022_s_at) / RFU A4GNT (11735810_at) / Fold change /veh A4GNT (11735810_at) / RFU PRB3 (11715151_x_at) / Fold change /veh PRB3 (11715151_x_at) / RFU TUBB4B (11761932_at) / Fold change /veh TUBB4B (11761932_at) / RFU CAPN14 (11732068_a_at) / Fold change /veh CAPN14 (11732068_a_at) / RFU TMCC2 (11721928_a_at) / Fold change /veh TMCC2 (11721928_a_at) / RFU IRGQ (11745062_a_at) / Fold change /veh IRGQ (11745062_a_at) / RFU FAM174B (11720279_a_at) / Fold change /veh FAM174B (11720279_a_at) / RFU TMPRSS4 (11748680_a_at) / Fold change /veh TMPRSS4 (11748680_a_at) / RFU FAM212B (11763350_a_at) / Fold change /veh FAM212B (11763350_a_at) / RFU PLEKHG5 (11743358_a_at) / Fold change /veh PLEKHG5 (11743358_a_at) / RFU ZSCAN30 (11745921_a_at) / Fold change /veh ZSCAN30 (11745921_a_at) / RFU CMKLR1 (11741424_a_at) / Fold change /veh CMKLR1 (11741424_a_at) / RFU LOC101060620 /// MAPK8IP1 (11723275_at) / Fold change /veh LOC101060620 /// MAPK8IP1 (11723275_at) / RFU SPTSSB (11747773_x_at) / Fold change /veh SPTSSB (11747773_x_at) / RFU PRSS12 (11739890_at) / Fold change /veh PRSS12 (11739890_at) / RFU BIN1 (11741810_x_at) / Fold change /veh BIN1 (11741810_x_at) / RFU WNT11 (11732464_a_at) / Fold change /veh WNT11 (11732464_a_at) / RFU C10orf10 (11716521_a_at) / Fold change /veh C10orf10 (11716521_a_at) / RFU C5orf56 (11738089_at) / Fold change /veh C5orf56 (11738089_at) / RFU CYB561 (11721691_x_at) / Fold change /veh CYB561 (11721691_x_at) / RFU ANKRD19P (11752326_a_at) / Fold change /veh ANKRD19P (11752326_a_at) / RFU OR2T12 /// OR2T33 /// OR2T8 (11738714_s_at) / Fold change /veh OR2T12 /// OR2T33 /// OR2T8 (11738714_s_at) / RFU VCAN (11748164_a_at) / Fold change /veh VCAN (11748164_a_at) / RFU JSRP1 (11732532_at) / Fold change /veh JSRP1 (11732532_at) / RFU KRTAP10-11 (11738290_x_at) / Fold change /veh KRTAP10-11 (11738290_x_at) / RFU MYO3A (11730013_a_at) / Fold change /veh MYO3A (11730013_a_at) / RFU EBF3 (11725865_a_at) / Fold change /veh EBF3 (11725865_a_at) / RFU CAMK2N1 (11719241_x_at) / Fold change /veh CAMK2N1 (11719241_x_at) / RFU C5orf56 (11738088_a_at) / Fold change /veh C5orf56 (11738088_a_at) / RFU OLFML3 (11715873_a_at) / Fold change /veh OLFML3 (11715873_a_at) / RFU LOC100653217 /// NTM (11731650_a_at) / Fold change /veh LOC100653217 /// NTM (11731650_a_at) / RFU MAPK11 (11762145_a_at) / Fold change /veh MAPK11 (11762145_a_at) / RFU FIZ1 (11724087_x_at) / Fold change /veh FIZ1 (11724087_x_at) / RFU OASL (11726364_x_at) / Fold change /veh OASL (11726364_x_at) / RFU SOX15 (11748057_x_at) / Fold change /veh SOX15 (11748057_x_at) / RFU CD79A (11719716_a_at) / Fold change /veh CD79A (11719716_a_at) / RFU HIST1H1D (11736915_at) / Fold change /veh HIST1H1D (11736915_at) / RFU CASKIN2 (11723855_a_at) / Fold change /veh CASKIN2 (11723855_a_at) / RFU LOC730098 (11760151_x_at) / Fold change /veh LOC730098 (11760151_x_at) / RFU OR4N2 (11742367_at) / Fold change /veh OR4N2 (11742367_at) / RFU PRRT2 (11749266_a_at) / Fold change /veh PRRT2 (11749266_a_at) / RFU SNX32 (11753110_a_at) / Fold change /veh SNX32 (11753110_a_at) / RFU CDHR5 (11726645_a_at) / Fold change /veh CDHR5 (11726645_a_at) / RFU RCAN1 (11760418_a_at) / Fold change /veh RCAN1 (11760418_a_at) / RFU FAM167A (11723789_a_at) / Fold change /veh FAM167A (11723789_a_at) / RFU FAM26E (11764081_at) / Fold change /veh FAM26E (11764081_at) / RFU ISYNA1 (11749810_s_at) / Fold change /veh ISYNA1 (11749810_s_at) / RFU ACY1 (11761880_at) / Fold change /veh ACY1 (11761880_at) / RFU 11764098_at / Fold change /veh 11764098_at / RFU SAMD14 (11745864_x_at) / Fold change /veh SAMD14 (11745864_x_at) / RFU NPB (11741838_a_at) / Fold change /veh NPB (11741838_a_at) / RFU TMPRSS6 (11731388_a_at) / Fold change /veh TMPRSS6 (11731388_a_at) / RFU KRTAP10-2 (11738614_at) / Fold change /veh KRTAP10-2 (11738614_at) / RFU ARHGAP8 /// PRR5-ARHGAP8 (11727945_x_at) / Fold change /veh ARHGAP8 /// PRR5-ARHGAP8 (11727945_x_at) / RFU KRTAP5-7 /// NADSYN1 (11734609_at) / Fold change /veh KRTAP5-7 /// NADSYN1 (11734609_at) / RFU RASL12 (11751679_a_at) / Fold change /veh RASL12 (11751679_a_at) / RFU CDKN2B (11736163_a_at) / Fold change /veh CDKN2B (11736163_a_at) / RFU PRF1 (11729649_at) / Fold change /veh PRF1 (11729649_at) / RFU, ZNF638 /// ZNF638-IT1 / Fold change vs veh, ZNF638 /// ZNF638-IT1 / RFU, PANK3 / Fold change vs veh, PANK3 / RFU, SH3YL1 / Fold change vs veh, SH3YL1 / RFU, ZEB2 / Fold change vs veh, ZEB2 / RFU, NRIP1 / Fold change vs veh, NRIP1 / RFU, PTTG1IP / Fold change vs veh, PTTG1IP / RFU, CAPN2 / Fold change vs veh, CAPN2 / RFU, MED14 / Fold change vs veh, MED14 / RFU, SNORA58 / Fold change vs veh, SNORA58 / RFU, C1orf63 / Fold change vs veh, C1orf63 / RFU, LRRFIP1 / Fold change vs veh, LRRFIP1 / RFU, NDUFAF7 / Fold change vs veh, NDUFAF7 / RFU, SLC12A2 / Fold change vs veh, SLC12A2 / RFU, IBTK / Fold change vs veh, IBTK / RFU, ESF1 / Fold change vs veh, ESF1 / Fold change vs veh, TMEM50B / RFU, TAOK1 / Fold change vs veh, TAOK1 / RFU, ACBD3 / Fold change vs veh, ACBD3 / RFU, TMA16 / Fold change vs veh, TMA16 / RFU, RWDD3 / Fold change vs veh, RWDD3 / RFU, BCAT1 / Fold change vs veh, BCAT1 / RFU, EDEM3 / Fold change vs veh, EDEM3 / RFU, TMEM33 / Fold change vs veh, TMEM33 / RFU, WDR75 / Fold change vs veh, WDR75 / RFU, AHCTF1 / Fold change vs veh, AHCTF1 / RFU, TFRC / Fold change vs veh, TFRC / RFU, ZDHHC17 / Fold change vs veh, ZDHHC17 / RFU, NOM1 / Fold change vs veh, NOM1 / RFU, ARL8B / Fold change vs veh, ARL8B / RFU, ZBTB11 / Fold change vs veh, ZBTB11 / RFU, TAMM41 / Fold change vs veh, TAMM41 / RFU, KIAA1704 /// LOC100996395 / Fold change vs veh, KIAA1704 /// LOC100996395 / RFU, ING1 / Fold change vs veh, ING1 / RFU, TRMT61B / Fold change vs veh, TRMT61B / RFU, FUBP3 / Fold change vs veh, FUBP3 / RFU, TP53 / Fold change vs veh, TP53 / RFU, TNKS2 / Fold change vs veh, TNKS2 / RFU, ZFP14 / Fold change vs veh, ZFP14 / RFU, ACTR2 / Fold change vs veh, ACTR2 / RFU, PPP3R1 / Fold change vs veh, PPP3R1 / RFU, PIK3R1 / Fold change vs veh, PIK3R1 / RFU, HNRNPA1 / Fold change vs veh, HNRNPA1 / RFU, RNF170 / Fold change vs veh, RNF170 / RFU, ZNF28 / Fold change vs veh, ZNF28 / RFU, RNGTT / Fold change vs veh, RNGTT / RFU, OGT / Fold change vs veh, OGT / RFU, BRD1 / Fold change vs veh, BRD1 / RFU, MARS / Fold change vs veh, MARS / RFU, ZNF655 / Fold change vs veh, ZNF655 / RFU, FAHD1 / Fold change vs veh, FAHD1 / RFU, BDP1 / Fold change vs veh, BDP1 / RFU, LRRCC1 / Fold change vs veh, LRRCC1 / RFU, ARID1A / Fold change vs veh, ARID1A / RFU, ZNF146 / Fold change vs veh, ZNF146 / RFU, ZNF330 / Fold change vs veh, ZNF330 / RFU, GPN3 / Fold change vs veh, GPN3 / RFU, C9orf123 / Fold change vs veh, C9orf123 / RFU, N4BP2L2 / Fold change vs veh, N4BP2L2 / RFU, ARFIP1 / Fold change vs veh, ARFIP1 / RFU, FAM179B / Fold change vs veh, FAM179B / RFU, BCL10 / Fold change vs veh, BCL10 / RFU, UHRF1BP1L / Fold change vs veh, UHRF1BP1L / RFU, BET1 / Fold change vs veh, BET1 / RFU, CNOT2 / Fold change vs veh, CNOT2 / RFU, ZNF268 / Fold change vs veh, ZNF268 / Fold change vs veh, ZNF507 / RFU, DGCR2 / Fold change vs veh, DGCR2 / RFU, WDSUB1 / Fold change vs veh, WDSUB1 / Fold change vs veh, HSP90B1 /// MIR3652 / RFU, ADSS / Fold change vs veh, ADSS / RFU, GK / Fold change vs veh, GK / RFU, ZNF148 / Fold change vs veh, ZNF148 / RFU, TAF9 / Fold change vs veh, TAF9 / RFU, SLC1A5 / Fold change vs veh, SLC1A5 / RFU, SLMO2 / Fold change vs veh, SLMO2 / RFU, ABCC4 / Fold change vs veh, ABCC4 / RFU, LOC101060439 /// RAP1B / Fold change vs veh, LOC101060439 /// RAP1B / RFU, RFX7 / Fold change vs veh, RFX7 / RFU, GTPBP10 / Fold change vs veh, GTPBP10 / RFU, CNEP1R1 / Fold change vs veh, CNEP1R1 / RFU, BIVM-ERCC5 /// ERCC5 / Fold change vs veh, BIVM-ERCC5 /// ERCC5 / RFU, ILF3 / Fold change vs veh, ILF3 / RFU 11762660_at / Fold change /veh 11762660_at / RFU VCAN (11757783_s_at) / Fold change /veh VCAN (11757783_s_at) / RFU DDX43 (11728927_at) / Fold change /veh DDX43 (11728927_at) / RFU KRT8 (11758188_x_at) / Fold change /veh KRT8 (11758188_x_at) / RFU NKD1 (11759106_at) / Fold change /veh NKD1 (11759106_at) / RFU SRD5A1 (11742802_a_at) / Fold change /veh SRD5A1 (11742802_a_at) / RFU TPSAB1 /// TPSB2 (11721975_s_at) / Fold change /veh TPSAB1 /// TPSB2 (11721975_s_at) / RFU GSTM3 (11746129_a_at) / Fold change /veh GSTM3 (11746129_a_at) / RFU IL23R (11737362_x_at) / Fold change /veh IL23R (11737362_x_at) / RFU TMEM51 (11727254_a_at) / Fold change /veh TMEM51 (11727254_a_at) / RFU PIWIL2 (11732686_x_at) / Fold change /veh PIWIL2 (11732686_x_at) / RFU ORM1 (11744905_x_at) / Fold change /veh ORM1 (11744905_x_at) / RFU CCDC152 (11743942_at) / Fold change /veh CCDC152 (11743942_at) / RFU ECM1 (11717891_a_at) / Fold change /veh ECM1 (11717891_a_at) / RFU IL23R (11748794_a_at) / Fold change /veh IL23R (11748794_a_at) / RFU TNFAIP8L3 (11732012_x_at) / Fold change /veh TNFAIP8L3 (11732012_x_at) / RFU MBOAT4 (11741988_at) / Fold change /veh MBOAT4 (11741988_at) / RFU 11764193_at / Fold change /veh 11764193_at / RFU TMEM53 (11763286_at) / Fold change /veh TMEM53 (11763286_at) / RFU MAGEB2 (11727129_at) / Fold change /veh MAGEB2 (11727129_at) / RFU TMEM200A (11744735_a_at) / Fold change /veh TMEM200A (11744735_a_at) / RFU CCDC152 (11751479_a_at) / Fold change /veh CCDC152 (11751479_a_at) / RFU FAM211A (11726209_a_at) / Fold change /veh FAM211A (11726209_a_at) / RFU RGS16 (11746705_a_at) / Fold change /veh RGS16 (11746705_a_at) / RFU VCAN (11755009_s_at) / Fold change /veh VCAN (11755009_s_at) / RFU RHOB (11743442_s_at) / Fold change /veh RHOB (11743442_s_at) / RFU RGS16 (11720943_a_at) / Fold change /veh RGS16 (11720943_a_at) / RFU RGS16 (11720944_at) / Fold change /veh RGS16 (11720944_at) / RFU, VPS4B / Fold change vs veh, VPS4B / RFU, CREB1 / Fold change vs veh, CREB1 / RFU, DNAJC13 / Fold change vs veh, DNAJC13 / RFU, GNAQ / Fold change vs veh, GNAQ / RFU, CDK5R1 / Fold change vs veh, CDK5R1 / RFU, ZRANB3 / Fold change vs veh, ZRANB3 / RFU, CUL4A / Fold change vs veh, CUL4A / RFU, CCNY / Fold change vs veh, CCNY / RFU, UFL1 / Fold change vs veh, UFL1 / RFU, COG3 / Fold change vs veh, COG3 / RFU, DIAPH2 / Fold change vs veh, DIAPH2 / RFU, SKA2 / Fold change vs veh, SKA2 / RFU, AFF3 / Fold change vs veh, AFF3 / RFU, LMF1 / Fold change vs veh, LMF1 / RFU, IPO11 / Fold change vs veh, IPO11 / RFU, DFFB / Fold change vs veh, DFFB / RFU, FOXP1 / Fold change vs veh, FOXP1 / RFU, CARD8 / Fold change vs veh, CARD8 / RFU, STRN3 / Fold change vs veh, STRN3 / RFU, ADK / Fold change vs veh, ADK / RFU, RASSF2 / Fold change vs veh, RASSF2 / RFU, WIPF1 / Fold change vs veh, WIPF1 / RFU, LARP1B / Fold change vs veh, LARP1B / RFU, RASA1 / Fold change vs veh, RASA1 / RFU, RB1 / Fold change vs veh, RB1 / RFU, PPFIA1 / Fold change vs veh, PPFIA1 / RFU, MAT2A / Fold change vs veh, MAT2A / RFU, CCT5 / Fold change vs veh, CCT5 / RFU, WDR92 / Fold change vs veh, WDR92 / RFU, CUX1 / Fold change vs veh, CUX1 / RFU, TTC7A / Fold change vs veh, TTC7A / RFU, TMEM135 / Fold change vs veh, TMEM135 / RFU, DEPTOR / Fold change vs veh, DEPTOR / RFU, CPM / Fold change vs veh, CPM / RFU, DNAJB6 / Fold change vs veh, DNAJB6 / RFU, CACNA2D3 / Fold change vs veh, CACNA2D3 / RFU, DTX4 / Fold change vs veh, DTX4 / RFU, TFCP2 / Fold change vs veh, TFCP2 / RFU, GMCL1 /// GMCL1P1 / Fold change vs veh, GMCL1 /// GMCL1P1 / RFU, AEBP2 / Fold change vs veh, AEBP2 / RFU, SNHG1 /// SNORD22 /// SNORD25 /// SNORD26 /// SNORD27 /// SNORD28 /// SNORD29 /// SNORD31 / Fold change vs veh, SNHG1 /// SNORD22 /// SNORD25 /// SNORD26 /// SNORD27 /// SNORD28 /// SNORD29 /// SNORD31 / Fold change (Aza/veh), C12orf56 (ProbeSet 11735607_a_at) / Fold change (ACY-1035/veh), C12orf56 (ProbeSet 11735607_a_at) / Fold change (Aza/veh), FGFR1OP (ProbeSet 11751329_s_at) / Fold change (ACY-1035/veh), FGFR1OP (ProbeSet 11751329_s_at) / Fold change (Aza/veh), VPS36 (ProbeSet 11739960_a_at) / Fold change (ACY-1035/veh), VPS36 (ProbeSet 11739960_a_at) / RFU SYPL1 (11715823_x_at) / Fold change /veh SYPL1 (11715823_x_at) / RFU IGFBP7 (11715501_s_at) / Fold change /veh IGFBP7 (11715501_s_at) / RFU REEP3 (11722064_at) / Fold change /veh REEP3 (11722064_at) / RFU IGLL1 (11728026_x_at) / Fold change /veh IGLL1 (11728026_x_at): dose or concentration left out as unconfirmed",
  "conditions": "MV-4-11 cells, 48 hours",
  "data": [
    {"smiles": "Nc1ccc(-c2cccs2)cc1NC(=O)c1ccc2c(c1)cc(C1CC1)n2CCN1CCOCC1", "note": "[ACY-1035]", "values": [
      {"measurement": "Fold change /veh KRTAP10-2 (11738614_at)", "result": 0.99}
    ]}
  ]
}
